How the values were obtained:
Assay in all cases: MIC by broth dilution method (Table 4)
Format in all cases: cell-based
Parameters in all cases: unit not given here
E. coli D31m4 = conditions: E. coli D31m4* Tc^r, lipopolysaccharide-deficient mutant; 18 hours
Method: (§1) The minimum inhibitory concentration, the lowest concentration of drug that inhibits bacterial growth at 18 hours at their appropriate temperature, is determined by the broth dilution method using L-broth or Muller-Hinton broth. The Muller-Hinton broth was cation-adjusted accordingly and all bacteriological methods were performed as was described by Waitz, J. A., National Commision for Clinical Laboratory Standards Document M7-A2, vol.10, no. 8, pp.13-20, 2nd edition, Villanova, Pa. (1990). The organisms tested represent gram-positive and gram-negative bacterial species that are susceptible to tetracyclines or are resistant to tetracyclines due to the ability to efflux tetracyclines or which confer resistance by ribosomal protection mechanisms. The clinical strains used are either susceptible to tetracyclines or are resistant to them by either drug efflux or ribosomal protection.

S. aureus MRSA5 = S. aureus MRSA5 Tc^r; 18 hours
Method: as §1

S. aureus RN4250 = S. aureus RN4250 Tc^r; 18 hours
Method: as §1

E. faecalis ATCC9790 = conditions: E. faecalis Tc^r ATCC9790; 18 hours
Method: as §1

S. aureus ATCC12715 = conditions: S. aureus Tc^r ATCC12715; 18 hours
Method: as §1

S. aureus RN450 = S. aureus RN450 Tc^s; 18 hours
Method: as §1

E. coli D31m4(pHCM1) = E. coli D31m4(pHCM1) Tcr; 18 hours
Method: as §1

E. faecalis pMV158 = E. faecalis pMV158 Tc^r; 18 hours
Method: as §1

E. faecalis pAM211 = E. faecalis pAM211 Tc^r; 18 hours
Method: as §1

SMILES | Antibacterial activity (minimum inhibitory concentration) (E. coli D31m4) | Antibacterial activity (minimum inhibitory concentration) (S. aureus MRSA5) | Antibacterial activity (minimum inhibitory concentration) (S. aureus RN4250) | Antibacterial activity (minimum inhibitory concentration) (E. faecalis ATCC9790) | Antibacterial activity (minimum inhibitory concentration) (S. aureus ATCC12715) | Antibacterial activity (minimum inhibitory concentration) (S. aureus RN450) | Antibacterial activity (minimum inhibitory concentration) (E. coli D31m4(pHCM1)) | Antibacterial activity (minimum inhibitory concentration) (E. faecalis pMV158) | Antibacterial activity (minimum inhibitory concentration) (E. faecalis pAM211)
CCCC(C)(C)c1ccc2c(c1O)C(=O)C1=C(O)[C@]3(O)C(=O)C(C(N)=O)=C(O)[C@@H](N(C)C)C3C(O)C1C2C (stereo partly drawn) [H, [4S-(4alpha,12aalpha)]-9-[2′-(2′-methyl)pentyl]-4-(dimethylamino)-1,4,4a,5,5a,6,11,12a-octahydro-3,5,10,12,12a-pentahydroxy-6-methyl-1,11-dioxo-2-naphthacenecarboxamide] | 50 | 0.39 | 0.39 | 0.78 | 0.78 | 0.08 | 1.56 | 0.78 | 0.78
CC1c2ccc(C(C)(C)CCCN(C)C)c(O)c2C(=O)C2=C(O)[C@]3(O)C(=O)C(C(N)=O)=C(O)[C@@H](N(C)C)C3C(O)C21 (stereo partly drawn) [J, [4S-(4alpha,12aalpha)]-9-[4′-(1′-dimethylamino-4′-methyl)pentyl]-4-(dimethylamino)-1,4,4a,5,5a,6,11,12a-octahydro-3,5,10,12,12a-pentahydroxy-6-methyl-1,11-dioxo-2-naphthacenecarboxamide] | 50 | 50 | 50 | 50 | 50 | 50 | 50 | 50 | 50
CC(=O)OC(CCC(C)C)c1ccc2c(c1O)C(=O)C1=C(O)C3(O)C(=O)C(C(N)=O)=C(O)C(N(C)C)C3C(O)C1C2C (stereo not drawn) [Compound N, [4S-(4alpha,12aalpha)]-9-[4′-(1′-acetoxy-4′-methyl)pentyl]-4-(dimethylamino)-1,4,4a,5,5a,6,11,12a-octahydro-3,5,10,12,12a-pentahydroxy-6-methyl-1,11-dioxo-2-naphthacenecarboxamide] | 3.12 | 1.56 | 1.56 | 1.56 | 1.56 | 1.56 | 3.12 | 0.78 | 1.56
CCC(=O)OC1C2C(=C(O)C3(O)C(=O)C(C(N)=O)=C(O)C(N(C)C)C13)C(=O)c1c(ccc(C(C)(C)C)c1O)C2C (stereo not drawn) [B, [4S-(4alpha,12aalpha)]-9-(tert-butyl)-4-(dimethylamino)-5-propionylcarbonyloxy-1,4,4a,5,5a,6,11,12a-octahydro-3,10,12,12a-tetrahydroxy-6-methyl-1,11-dioxo-2-naphthacenecarboxamide] | 6.25 | 3.12 | 0.78 | 1.56 | 1.56 | 0.39 | 6.25 | 0.39 | 0.78
CC1c2ccc(C(C)(C)CCC[N+](=O)[O-])c(O)c2C(=O)C2=C(O)[C@]3(O)C(=O)C(C(N)=O)=C(O)[C@@H](N(C)C)C3C(O)C21 (stereo partly drawn) [M, [4S-(4alpha,12a-alpha)]-9-[4′-(1′-nitro-4′-methyl)pentyl]-4-(dimethylamino)-1,4,4a,5,5a,6,11,12a-octahydro-3,5,10,12,12a-pentahydroxy-6-methyl-1,11-dioxo-2-naphthacenecarboxamide] | 12.5 | 0.78 | 0.78 | 0.78 | 1.56 | 3.12 |  | 0.78 | 0.78
CC1c2ccc(C(C)(C)CCCBr)c(O)c2C(=O)C2=C(O)[C@]3(O)C(=O)C(C(N)=O)=C(O)[C@@H](N(C)C)C3C(O)C21 (stereo partly drawn) [I, [4S-(4alpha,12aalpha)]-9-[4′-(1′-bromo-4′-methyl)pentyl]-4-(dimethylamino)-1,4,4a,5,5a,6,11,12a-octahydro-3,5,10,12,12a-pentahydroxy-6-methyl-1,11-dioxo-2-naphthacenecarboxamide] | 1.56 | 0.39 | 0.08 | 0.39 | 0.78 | 0.39 | 1.56 | 0.08 | 0.78
CC1c2ccc(C3(C)CCCC3)c(O)c2C(=O)C2=C(O)C3(O)C(=O)C(C(N)=O)=C(O)C(N(C)C)C3C(O)C21 (stereo not drawn) [F, [4S-(4alpha,12aalpha)]-9-[1′-(1′-methyl)cyclopentyl]-4-(dimethylamino)-1,4,4a,5,5a,6,11,12a-octahydro-3,5,10,12,12a-pentahydroxy-6-methyl-1,11-dioxo-2-naphthacenecarboxamide] | 0.78 | 0.08 | 0.39 | 0.78 | 0.78 | 0.39 | 1.56 | 0.08 | 0.39
CC(=O)OC1C2C(=C(O)C3(O)C(=O)C(C(N)=O)=C(O)C(N(C)C)C13)C(=O)c1c(ccc(C(C)(C)C)c1O)C2C (stereo not drawn) [C, [4S-(4alpha,12aalpha)]-9-(tert-butyl)-4-(dimethylamino)-5-acetylcarbonyloxy-1,4,4a,5,5a,6,11,12a-octahydro-3,10,12,12a-tetrahydroxy-6-methyl-1,11-dioxo-2-naphthacenecarboxamide] | 3.12 | 1.56 | 0.39 | 0.78 | 0.78 | 0.39 | 3.12 | 0.39 | 0.78

From patent publication US20040152674A1, “Pharmaceutically active compounds and methods of use thereof” (Trustees of Tufts College, priority 1998, published 2004)
